# Measurements as given in patent US11149022B2, “Antagonists of the muscarinic acetylcholine receptor M4” (Vanderbilt University, priority 2017, dated 2021).
# Target: T1, Human M4 (Homo sapiens, UniProt P08173)
# T1 construct: expressed in transfected cells; host or cells: CHO-K1 (ATCC), stably co-expressing chimeric G protein Gqi5
# T1 sequence (P08173 1-479): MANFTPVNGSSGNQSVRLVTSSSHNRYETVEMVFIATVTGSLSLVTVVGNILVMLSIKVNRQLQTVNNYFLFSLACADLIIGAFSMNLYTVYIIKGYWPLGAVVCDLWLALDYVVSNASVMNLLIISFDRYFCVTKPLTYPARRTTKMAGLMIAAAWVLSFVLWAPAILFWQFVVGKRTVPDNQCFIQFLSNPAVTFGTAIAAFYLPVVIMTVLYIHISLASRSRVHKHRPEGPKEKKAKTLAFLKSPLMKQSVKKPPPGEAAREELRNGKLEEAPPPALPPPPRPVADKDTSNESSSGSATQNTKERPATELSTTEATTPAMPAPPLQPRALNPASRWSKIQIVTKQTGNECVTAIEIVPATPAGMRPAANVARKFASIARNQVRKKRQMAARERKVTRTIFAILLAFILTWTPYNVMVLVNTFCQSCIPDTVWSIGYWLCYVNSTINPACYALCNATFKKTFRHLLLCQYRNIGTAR
# Test: mAChR M4 cell-based functional assay (calcium flux, antagonist mode)
# Details: for remaining activity at 30 µM: % ACh maximum at 30 μM, read-out: Emin; for IC50: M4/Gqi5/CHO-K1 cells, concentration-dependent decrease of the EC80 acetylcholine response
# Method: Human or rat M4 cDNA, along with the chimeric G protein Gqi5, were transfected into Chinese hamster ovary (CHO-K1) cells purchased from the American Type Culture Collection using Lipofectamine2000. M4/Gqi5/CHO cells were grown in Ham's F-12 medium containing 10% heat-inactivated fetal bovine serum (FBS), 20 mM HEPES, 500 μg/mL G418 sulfate, and 200 μg/mL Hygromycin B.
# For high throughput measurement of agonist-evoked increases in intracellular calcium, CHO-K1 cells stably expressing muscarinic receptors were plated in growth medium lacking G418 and hygromycin at 15,000 cells/20 μL/well in Greiner 384-well black-walled, tissue culture (TC)-treated, clear-bottom plates (VWR). Cells were incubated overnight at 37° C. and 5% CO2. The next day, cells were washed using an ELX 405 (BioTek) with assay buffer; the final volume was then aspirated to 20 μL, Next, 20 μL of a 2.3 μM stock of Fluo-4/acetoxymethyl ester (Invitrogen, Carlsbad, Calif.), prepared as a 2.3 μM stock in DMSO, mixed in a 1:1 ratio with 10% (w/v) Pluronic F-127 and diluted in assay buffer, was added to the wells and the cell plates were incubated for 50 min at 37° C. and 5% CO2. Dye was removed by washing with the ELX 405 and the final volume was aspirated to […]. Compound master plates were formatted in a 10 point concentration-response curve (CRC) format (1:3 dilutions) in 100% DMSO with a starting concentration of 10 or 1 mM using a BRAVO liquid handler (Agilent). Test compound CRCs were then transferred to daughter plates (240 nL) using the Echo acoustic plate reformatter (Labcyte, Sunnyvale, Calif.) and then diluted into assay buffer (40 μL) to a 2× stock using a Thermo Fisher Combi (Thermo Fisher Scientific, Waltham, Mass.).
# Calcium flux was measured using the Functional Drug Screening System (FDSS) 6000 or 7000 (Hamamatsu Corporation, Tokyo, Japan) as an increase in the fluorescent static ratio. Compounds were applied to cells (20 μL, 2×) using the automated system of the FDSS at 2 seconds into the protocol and the data were collected at 1 Hz. At 143 s, 10 μL of an EC20 concentration of the muscarinic receptor agonist acetylcholine was added (5×), followed by the addition of 12 μL of an EC80 concentration of acetylcholine at the 268 s time point (5×). Agonist activity was analyzed as a concentration-dependent increase in calcium mobilization upon compound addition. Positive allosteric modulator activity was analyzed as a concentration-dependent increase in the EC20 acetylcholine response. Antagonist activity was analyzed as a concentration-dependent decrease in the EC80 acetylcholine response; for the purposes of the tables herein, an […] (inhibitory concentration 50) was calculated as a concentration-dependent decrease of the response elicited by an EC80 concentration of acetylcholine. Concentration-response curves were generated using a four-parameter logistical equation in XLFit curve fitting software (IDBS, Bridgewater, N.J.) for Excel (Microsoft, Redmond, Wash.) or Prism (GraphPad Software, Inc., San Diego, Calif.) or the Dotmatics software platform (Dotmatics, Bishop's Stortford, UK).
# Compounds were synthesized as described above. Activity (IC50 and Emin) was determined in the mAChR M4 cell-based functional assay as described above and the data are shown in Table 4.
Structure (SMILES),remaining activity at 30 µM [%],IC50 [µM]
"Fc1ccc(Cl)c(-c2ccc(NCC3CC4(CCN(Cc5ccccn5)CC4)C3)nn2)c1 [Compound 47, 6-(2-chloro-5-fluoro-phenyl)-N-[[7-(2-pyridylmethyl)-7-azaspiro[3.5]nonan-2-yl]methyl]pyridazin-3-amine]",5.52,1.91
"COc1cccc(CN2CCC3(CC2)CC(CNc2ccc(-c4cc(F)ccc4Cl)nn2)C3)n1 [Compound 48, 6-(2-chloro-5-fluoro-phenyl)-N-[[7-[(6-methoxy-2-pyridyl)methyl]-7-azaspiro[3.5]nonan-2-yl]methyl]pyridazin-3-amine]",4.48,1.74
"Fc1ccc(Cl)c(-c2ccc(NCC3CC4(CCN(Cc5ccc6c(c5)OCO6)CC4)C3)nn2)c1 [Compound 49, N-[[7-(1,3-benzodioxol-5-ylmethyl)-7-azaspiro[3.5]nonan-2-yl]methyl]-6-(2-chloro-5-fluoro-phenyl)pyridazin-3-amine]",4.6,2.02
"Cc1nn(C)cc1-c1ccc(NCC2CC3(CCN(CC4CCCCC4)CC3)C2)nn1 [Compound 50, N-[[7-(cyclohexylmethyl)-7-azaspiro[3.5]nonan-2-yl]methyl]-6-(1,3-dimethylpyrazol-4-yl)pyridazin-3-amine]",6.19,1.16
"Cc1nn(C)cc1-c1ccc(NCC2CC3(CCN(CC4CCCOC4)CC3)C2)nn1 (stereo not shown) [Compound 51, 6-(1,3-dimethylpyrazol-4-yl)-N-[[7-(tetrahydropyran-3-ylmethyl)-7-azaspiro[3.5]nonan-2-yl]methyl]pyridazin-3-amine]",37.6,> 10
"Cc1nn(C)cc1-c1ccc(NCC2CC3(CCN(CC4CCOCC4)CC3)C2)nn1 [Compound 52, 6-(1,3-dimethylpyrazol-4-yl)-N-[[7-(tetrahydropyran-4-ylmethyl)-7-azaspiro[3.5]nonan-2-yl]methyl]pyridazin-3-amine]",30.8,> 10
"Cc1nn(C)cc1-c1ccc(NCC2CC3(CCN(Cc4ccccc4)CC3)C2)nn1 [Compound 53, N-[(7-benzyl-7-azaspiro[3.5]nonan-2-yl)methyl]-6-(1,3-dimethylpyrazol-4-yl)pyridazin-3-amine]",8.66,2.68
"Cc1nn(C)cc1-c1ccc(NCC2CC3(CCN(Cc4ccccc4F)CC3)C2)nn1 [Compound 54, 6-(1,3-dimethylpyrazol-4-yl)-N-[[7-[(2-fluorophenyl)methyl]-7-azaspiro[3.5]nonan-2-yl]methyl]pyridazin-3-amine]",6.27,1.12
"Cc1nn(C)cc1-c1ccc(NCC2CC3(CCN(Cc4ccccn4)CC3)C2)nn1 [Compound 55, 6-(1,3-dimethylpyrazol-4-yl)-N-[[7-(2-pyridylmethyl)-7-azaspiro[3.5]nonan-2-yl]methyl]pyridazin-3-amine]",34.3,> 10
"Cc1cccnc1CN1CCC2(CC1)CC(CNc1ccc(-c3cn(C)nc3C)nn1)C2 [Compound 56, 6-(1,3-dimethylpyrazol-4-yl)-N-[[7-[(3-methyl-2-pyridyl)methyl]-7-azaspiro[3.5]nonan-2-yl]methyl]pyridazin-3-amine]",19.4,3.94
"Cc1nn(C)cc1-c1ccc(NCC2CC3(CCN(CC45CC6CC(CC(C6)C4)C5)CC3)C2)nn1 [Compound 57, N-[[7-(1-adamantylmethyl)-7-azaspiro[3.5]nonan-2-yl]methyl]-6-(1,3-dimethylpyrazol-4-yl)pyridazin-3-amine]",3.64,0.3
"Cc1nn(C)cc1-c1ccc(NCC2CC3(CCN(Cc4ccc(F)cc4)CC3)C2)nn1 [Compound 58, 6-(1,3-dimethylpyrazol-4-yl)-N-[[7-[(4-fluorophenyl)methyl]-7-azaspiro[3.5]nonan-2-yl]methyl]pyridazin-3-amine]",11.8,5.1
"Cc1nn(C)cc1-c1ccc(NCC2CC3(CCN(CC4CC5C=CC4C5)CC3)C2)nn1 (stereo not shown) [Compound 59, N-[[7-(5-bicyclo[2.2.1]hept-2-enylmethyl)-7-azaspiro[3.5]nonan-2-yl]methyl]-6-(1,3-dimethylpyrazol-4-yl)pyridazin-3-amine]",5.41,0.18
"CC(C)(C)CCN1CCC2(CC1)CC(COc1ccc(-c3cc(F)ccc3Cl)nn1)C2 [Compound 60, 2-[[6-(2-Chloro-5-fluoro-phenyl)pyridazin-3-yl]oxymethyl]-7-(3,3-dimethylbutyl)-7-azaspiro[3.5]nonane]",3.47,0.3
"Fc1ccc(Cl)c(-c2ccc(OCC3CC4(CCN(CC5CC6C=CC5C6)CC4)C3)nn2)c1 (stereo not shown) [Compound 61, 7-(5-bicyclo[2.2.1]hept-2-enylmethyl)-2-[[6-(2-chloro-5-fluoro-phenyl)pyridazin-3-yl]oxymethyl]-7-azaspiro[3.5]nonane]",3.96,0.25
"Fc1ccc(Cl)c(-c2ccc(OCC3CC4(CCN(CC5CCCCC5)CC4)C3)nn2)c1 [Compound 62, 2-[[6-(2-chloro-5-fluoro-phenyl)pyridazin-3-yl]oxymethyl]-7-(cyclohexylmethyl)-7-azaspiro[3.5]nonane]",6.14,1.49
"Fc1ccc(Cl)c(-c2ccc(OCC3CC4(CCN(CC5CCCOC5)CC4)C3)nn2)c1 (stereo not shown) [Compound 63, 2-[[6-(2-chloro-5-fluoro-phenyl)pyridazin-3-yl]oxymethyl]-7-(tetrahydropyran-3-ylmethyl)-7-azaspiro[3.5]nonane]",7.8,2.13
"Fc1ccc(Cl)c(-c2ccc(OCC3CC4(CCN(CC5CCOCC5)CC4)C3)nn2)c1 [Compound 64, 2-[[6-(2-chloro-5-fluoro-phenyl)pyridazin-3-yl]oxymethyl]-7-(tetrahydropyran-4-ylmethyl)-7-azaspiro[3.5]nonane]",6.61,1.31
"Fc1ccc(Cl)c(-c2ccc(OCC3CC4(CCN(Cc5ccccc5)CC4)C3)nn2)c1 [Compound 65, 7-benzyl-2-[[6-(2-chIoro-5-fluoro-phenyl)pyridazin-3-yl]oxymethyl]-7-azaspiro[3.5]nonane]",6.28,2.66
"Fc1ccc(Cl)c(-c2ccc(OCC3CC4(CCN(Cc5ccccn5)CC4)C3)nn2)c1 [Compound 66, 2-[[6-(2-chloro-5-fluoro-phenyl)pyridazin-3-yl]oxymethyl]-7-(2-pyridylmethyl)-7-azaspiro[3.5]nonane]",8.3,2.74
